We go through 70 molecules from PubChem BioAssay AID449762 (Southern Research Specialized Biocontainment Screening …, 2010).

SMILES strings stand for the structures. pIC50: −log10 of the molar value. Records with an inconclusive call do not appear.

The test system of the experiment is M. tuberculosis H37Rv growth inhibition, 7H9 media. Nature of the experiment: M. tuberculosis growth inhibition, HTS (AID 449762).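 On all read-outs here: bacterial growth assessed after seven days of incubation.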 Conditions: for IC90: measured here: IC90 growth inhibition.

Take `O=C(N/N=C/c1ccc([N+](=O)[O-])o1)c1sc2ccccc2c1Cl`: the pIC50 (usually the IC50 on a negative log10 scale, so that one unit is a factor of ten) was 5.58 and the IC90 (in general, the concentration at which the effect reaches the 90% level) came out at 4.6 µM.
Regarding `CN(c1ccccc1)S(=O)(=O)c1cccc(C(=O)NCc2ccccc2CN2CCCC2)c1`, the pIC50 is 4.31 and the concentration for an effect of 90% (IC90) was determined as 55.4 µM.
For `Nc1cc([N+](=O)[O-])ccc1Nc1ccc(O)cc1` the same measures were 4.52 and 34 µM.
As to `Cn1cc(NC(=O)CCl)cn1`, the pIC50 was 5.36 and the concentration for an effect of 90% (IC90) was 8.63 µM.
Turning to `O=C(CSc1nc2ccccc2c(=O)[nH]1)NCc1ccc(Cl)cc1`, the negative-log IC50 (pIC50) is 5.96 and the IC90 came to 2.7 µM.
As for `COC(=O)CC(=O)N1CCN(c2ccc(Cl)c(Cl)c2)CC1`, the pIC50 was 4.70 and the 90% effect concentration (IC90) is 55 µM.
As to `O=C1Nc2cc(C(=O)NCCCN3CCOCC3)ccc2S/C1=C/c1cccc(Cl)c1`, the pIC50 is 4.58 and the IC90 was determined as 41 µM.
`CCCn1c(CC)nc([N+](=O)[O-])c1S(=O)(=O)c1ccccc1`: the pIC50 was 5.11 and the 90% effect concentration (IC90) came out at 22.6 µM.
As for `O=C(c1ccc(Cl)cc1)N1N=C(c2ccccn2)CC1(O)C(F)(F)F` (stereo not drawn), the negative logarithm of the IC50 (pIC50) was 5.66 and the 90% effect concentration (IC90) is greater than 100 µM.
Turning to `CCOC(=O)c1c(NC(=O)CSc2nc3ccc(OC)cc3[nH]2)sc2c1CC(C)(C)NC2(C)C`, the pIC50 was 4.68 and the IC90 turned out to be 26.2 µM.
On to `O=C(Nc1ccn(Cc2ccccc2F)n1)c1ccc(COc2ccccc2Cl)cc1`, for which the negative logarithm of the IC50 (pIC50) was 4.93 and the 90% effect concentration (IC90) amounted to 13.2 µM.
With `CCn1c(C)nc2cc(C(=O)OC(C(F)(F)C(F)F)C(F)(F)C(F)F)ccc21`, the pIC50 was 4.75 and the 90% effect concentration (IC90) turned out to be 26.1 µM.
Consider `CCOc1ccc(OCCSc2ccc(S(=O)(=O)N3CCN(C)CC3)cn2)cc1`, for which the pIC50 was 4.66 and the IC90 was determined as 28.6 µM.
As to `CN(C)C1(CNC(=O)Nc2ccc(Cl)c(Cl)c2)CCCCC1`, the negative-log IC50 (pIC50) is 4.95 and the IC90 amounted to 12.5 µM.
For the molecule `CC1(C)Cc2ccccc2C2=NNC(=O)C2=N1`, the pIC50 was 4.95 and the IC90 came out at 21 µM.
Regarding `Cc1ccc2c(c1)Oc1ccc(NC(=O)CCl)cc1C(=O)N2`, the pIC50 was 5.10 and the concentration for an effect of 90% (IC90) is greater than 100 µM.
For the molecule `CCOC(=O)CSc1nnc(NC(=O)c2ccc3c(c2)OCO3)s1`, the pIC50 is 5.25 and the 90% effect concentration (IC90) stood at 42.3 µM.
As for `Cc1nc(N2CCN(c3ccccn3)CC2)c2c(C)c(C(=O)N3CCN(c4ccc(F)cc4)CC3)sc2n1`, the pIC50 was 4.96 and the IC90 was 12.5 µM.
`CC(C)c1ccc2[nH]c(O)c(N=NC(=O)c3ccc(CSc4nncn4C)cc3)c2c1` yielded an IC90 greater than 100 µM.
As to `NC(N)=Nc1nc(-c2ccccc2)c2ccccc2n1`, the pIC50 was 4.17 and the IC90 was 87.9 µM.
For `O=[N+]([O-])c1cc([N+](=O)[O-])c2c(=Nc3ccccc3)n(-c3ccccc3)n(O)c2c1` the same measures were 5.20 and 9.25 µM.
As to `COC(=O)C1C2c3ccccc3OC1(C)N=c1s/c(=C/c3cnn(C)c3C)c(=O)n12` (stereo not drawn), the pIC50 is 6.01 and the IC90 was 13.1 µM.
For `O=C(NCC1CC1)c1cc([N+](=O)[O-])cc([N+](=O)[O-])c1` the same measures were 5.24 and 6.43 µM.
Regarding `COc1ccccc1N(C)S(=O)(=O)c1ccc(C(=O)Nc2ccc3nc(C)sc3c2)cc1`, the pIC50 was 4.24 and the IC90 was greater than 100 µM.
For `O=c1c2ccc(Cl)cc2nc(-c2ccc([N+](=O)[O-])cc2)n1O`, the pIC50 is 4.08 and the 90% effect concentration (IC90) was greater than 100 µM.
With `CC1CCC/C(=N\NC(=S)Nc2ccccc2)C1` (stereo not drawn), the pIC50 is 4.36 and the IC90 worked out at 67.5 µM.
As to `Cc1cc(C(=O)N[C@H](c2ccccc2)[C@@]2(C)C[C@@H]2[C@@H](C)C(=O)Nc2ccc3ccccc3c2)n(C)n1`, the pIC50 was 4.61 and the IC90 was found to be 27.6 µM.
As to `CCCCCCCCn1sccc1=O`, the pIC50 was 5.89 and the IC90 was 2.12 µM.
For the molecule `CCOC(=O)CSc1ncc(OC)c(Sc2ccc(OC)cc2)n1`, the pIC50 is 5.12 and the IC90 was 73.4 µM.
`CCOC(=O)c1csc(-c2snnc2C)n1`: the pIC50 is 4.67 and the IC90 was determined as 52 µM.
Consider `CCOC(=O)c1cc(-c2ccccc2)nc2c1c(C)nn2-c1ccccn1`, for which the pIC50 was 5.53 and the concentration for an effect of 90% (IC90) was 27.2 µM.
Take `COc1ccccc1-c1cc(C(=O)NC2CCN(C)CC2)c2ccc(Cl)c(C)c2n1`: the pIC50 was 4.15 and the IC90 was found to be 95 µM.
Turning to `COc1ccc(Cl)cc1C(=O)O/N=C(\N)c1ccccn1`, the pIC50 was 4.60 and the IC90 is greater than 100 µM.
For the molecule `Cc1cc(Br)ccc1NC(=O)c1cnc(N2CCN(c3ccccn3)CC2)c2ccccc12`, the negative-log IC50 (pIC50) was 5.91 and the IC90 worked out at 3.49 µM.
As for `CCOC(=O)c1cnc(SC2CCc3ccccc3C2=O)nc1N` (stereo not drawn), the pIC50 is 4.15 and the IC90 is 88.7 µM.
For `CN1CCN(C2=Cc3ccc(Cl)cc3Sc3ccc(F)cc32)CC1` the same measures were 4.64 and 32.9 µM.
As for `CNC(CC(C)C)C(=O)NC1C(=O)NC(CC(N)=O)C(=O)NC2C(=O)NC3C(=O)NC(C(=O)NC(C(=O)O)c4cc(O)cc(O)c4-c4cc3ccc4O)C(O)c3ccc(c(Cl)c3)Oc3cc2cc(c3OC2OC(CO)C(O)C(O)C2OC2C[C@](C)(N)C(O)C(C)O2)Oc2ccc(cc2Cl)C1O` (stereo partly drawn), the pIC50 was 6.00 and the IC90 worked out at 4.42 µM.
In the case of `CC(=O)Nc1ccc(N2C(C(C)=O)=NN(c3ccc(Cl)cc3)C2c2sccc2C)cc1` (stereo not drawn), the pIC50 is 4.08 and the 90% effect concentration (IC90) worked out at 93.1 µM.
For the molecule `Nc1ccc2c(c1)oc1ccccc12`, the IC90 is greater than 100 µM.
For the molecule `Cc1nn2c(NCc3ccccn3)cc(C(C)C)nc2c1-c1ccccc1`, the pIC50 was 5.63 and the IC90 is 3.29 µM.
Take `Cc1ccc(/C=C/C(=O)N2CC(C)CC(C)C2)o1` (stereo not drawn): the pIC50 is 5.09 and the IC90 was determined as 22.1 µM.
Turning to `CC(=O)c1ccc(-n2cc(-c3ccc(C(C)(C)C)cc3)[n+]3c2SCCC3)cc1`, the pIC50 was 5.36 and the IC90 came out at 29.5 µM.
`Cc1[nH][nH]c(=O)c1C(c1ccc(-c2ccc(Cl)c(Cl)c2)o1)c1c(C)[nH][nH]c1=O`: the pIC50 is 4.27 and the IC90 is 85.6 µM.
For the molecule `Oc1ccccc1-c1nnc(COc2ccccc2)o1`, the pIC50 is 5.12 and the IC90 stood at 34.7 µM.
With `O=C(OCC(=O)c1cccs1)C1=COCCO1`, the pIC50 was 4.67 and the IC90 was greater than 100 µM.
Consider `CC1(C)c2cc(Cl)ccc2-n2c1cc(O)c(-c1ccccc1)c2=O`, for which the pIC50 was 5.35 and the IC90 came out at 10.8 µM.
As for `CCN(CC)S(=O)(=O)c1ccc(/C=C/C(=O)OCC#N)cc1`, the pIC50 was 5.18 and the IC90 is 39.6 µM.
Consider `CCOc1ccc(-c2[nH]ncc2-c2ccc(Cl)cc2)c(O)c1`, for which the pIC50 was 4.33 and the IC90 was 66.5 µM.
For `CCCCC(=O)/C=C/n1c(=S)oc2ccccc21` the same measures were 4.55 and greater than 100 µM.
For `CC1CC(C)(C)Nc2ccc(OC(=O)c3ccco3)cc21` (stereo not drawn) the same measures were 5.20 and 16.4 µM.
Consider `Cc1ccc(C)c(N2CCN(C(=O)c3ccc4nc(N5CCOCC5)sc4c3)CC2)c1`, for which the pIC50 was 4.42 and the IC90 is 47.4 µM.
Turning to `Cc1ccc(S(=O)(=O)Nc2cccc3ncccc23)s1`, the pIC50 was greater than 6.70 and the concentration for an effect of 90% (IC90) amounted to 3.93 µM.
In the case of `O=C(c1ccccc1)c1nn(-c2ccc(Cl)cc2)c(=O)cc1C(F)(F)F`, the pIC50 was 4.92 and the IC90 worked out at 19.6 µM.
Regarding `CC(C)NC(=O)c1sc(=S)n2c1[nH]c(=O)c1ccc(C(=O)NCCc3ccc(Cl)cc3)cc12`, the pIC50 is 6.52 and the IC90 is 0.49 µM.
In the case of `CCCCNc1nc(N(C)c2ccccc2)nc(-n2ccnc2)n1`, the negative logarithm of the IC50 (pIC50) was 4.97 and the IC90 is greater than 25 µM.
As for `O=[N+]([O-])c1ccc(S(=O)(=O)c2ccccc2)nc1`, the pIC50 was 6.00 and the IC90 came out at 2.08 µM.
As to `CCN(Cc1ccncc1)Cc1nc(-c2ccc(C(=O)OC)cc2)no1`, the negative logarithm of the IC50 (pIC50) is 4.82 and the 90% effect concentration (IC90) amounted to 41.6 µM.
For `CCCCC(=O)Nc1sc2c(c1C(=O)OCC)CCC(C=O)=C2Cl` the same measures were 4.84 and 44.5 µM.
Consider `Clc1ccc(NNc2ccnc3cc(Cl)ccc23)cc1`, for which the pIC50 is 4.78 and the IC90 is 21.5 µM.
For the molecule `O[C@@H](c1cc(C(F)(F)F)nc2c(C(F)(F)F)cccc12)[C@H]1CCCCN1`, the pIC50 is 4.74 and the IC90 was 24.5 µM.
As to `COc1ccc(OC)c(CN2CCN(C(=O)CNC(=O)c3ccc(C(C)(C)C)cc3)CC2)c1`, the pIC50 was 4.32 and the IC90 was determined as 67.8 µM.
In the case of `CCCCC(=O)OCC(=O)N1N=C(c2c[nH]c3ccccc23)C(O)C1c1ccc(OC)cc1` (stereo not drawn), the pIC50 is 4.98 and the IC90 is 15.9 µM.
Regarding `CC1(c2ccc(OC(F)F)cc2)NC(=O)N(CC(=O)c2ccc3c(c2)OCO3)C1=O` (stereo not drawn), the pIC50 is 4.63 and the IC90 turned out to be 32.2 µM.
As to `CCc1ccc(N=CC23c4ccccc4C(c4ccccc42)C2C(=O)N(c4ccc(OC)cc4)C(=O)C23)cc1` (stereo not drawn), the pIC50 is 4.27 and the IC90 is greater than 100 µM.
Consider `O=c1[nH][nH]c(-c2ccccc2O)c1C(C[N+](=O)[O-])c1cccc(Cl)c1` (stereo not drawn), for which the pIC50 was 4.13 and the IC90 is greater than 100 µM.
In the case of `CO/N=C(\Cn1ncc(N2CCCC2)c(Cl)c1=O)c1ccc(Cl)cc1`, the pIC50 is 4.77 and the IC90 was 27.5 µM.
In the case of `CC(C)C[C@H](NC(=O)c1nc[nH]c1C(=O)NC1CCN(C(=O)OC(C)(C)C)CC1)C(=O)OCc1ccccc1`, the pIC50 is 4.65 and the IC90 came out at 25.4 µM.
For `O=S(=O)(c1ccc(Cl)cc1)c1snnc1-c1ccccc1` the same measures were 5.20 and 51.8 µM.
Regarding `CCC(=O)Nc1nc2ccccc2n1Cc1ccc(Cl)cc1`, the pIC50 is greater than 6.70 and the IC90 came out at 4.92 µM.
Regarding `CC1(C)CN(c2ccccc2)N(C(=O)c2ccc(C#N)cc2)C1=O`, the pIC50 is 4.14 and the IC90 was greater than 100 µM.
